Columns and labels:
[1] = target: Proton Potassium ATPase (H+ K+ ATPase) (Ovis aries, UniProt A0ACI6QGK8); assay: Proton potassium ATPase inhibition (PPI), inorganic phosphate release; format: biochemical, sheep; conditions: calculated contribution of GRAOX components
Experimental: Fresh sheep stomach was obtained from local slaughterhouse at Mysore. The mucosa of gastric fundus was cut off and the inner layer were scraped for parietal cells and homogenized in 16 mM Tris buffer (pH 7.4) containing 10% triton-x100 and centrifuged at 6000 rpm for 10 min. The supernatant (enzyme extract) was used for the assay. Protein content was determined according to Brad ford's method using BSA as standard.
Inorganic phosphate formed was measured spectrophotometrically at 400 nm. Enzyme activity was calculated as μ moles of Pi released/hr at various doses of GRAOX and GRPP. […] (FIG. 1, Table. 1)

[2] = Antioxidant (Aox) potency of identified phenolic acids; conditions: for Contribution towards AOX potency of GRAOX: calculated contribution of GRAOX components
Experimental: The identified phenolic acids were examined for their ability to inhibit proton potassium ATPase activity and their antioxidant potency was also determined.

Sequence of Proton Potassium ATPase (H+ K+ ATPase) (A0ACI6QGK8 entry or part of it): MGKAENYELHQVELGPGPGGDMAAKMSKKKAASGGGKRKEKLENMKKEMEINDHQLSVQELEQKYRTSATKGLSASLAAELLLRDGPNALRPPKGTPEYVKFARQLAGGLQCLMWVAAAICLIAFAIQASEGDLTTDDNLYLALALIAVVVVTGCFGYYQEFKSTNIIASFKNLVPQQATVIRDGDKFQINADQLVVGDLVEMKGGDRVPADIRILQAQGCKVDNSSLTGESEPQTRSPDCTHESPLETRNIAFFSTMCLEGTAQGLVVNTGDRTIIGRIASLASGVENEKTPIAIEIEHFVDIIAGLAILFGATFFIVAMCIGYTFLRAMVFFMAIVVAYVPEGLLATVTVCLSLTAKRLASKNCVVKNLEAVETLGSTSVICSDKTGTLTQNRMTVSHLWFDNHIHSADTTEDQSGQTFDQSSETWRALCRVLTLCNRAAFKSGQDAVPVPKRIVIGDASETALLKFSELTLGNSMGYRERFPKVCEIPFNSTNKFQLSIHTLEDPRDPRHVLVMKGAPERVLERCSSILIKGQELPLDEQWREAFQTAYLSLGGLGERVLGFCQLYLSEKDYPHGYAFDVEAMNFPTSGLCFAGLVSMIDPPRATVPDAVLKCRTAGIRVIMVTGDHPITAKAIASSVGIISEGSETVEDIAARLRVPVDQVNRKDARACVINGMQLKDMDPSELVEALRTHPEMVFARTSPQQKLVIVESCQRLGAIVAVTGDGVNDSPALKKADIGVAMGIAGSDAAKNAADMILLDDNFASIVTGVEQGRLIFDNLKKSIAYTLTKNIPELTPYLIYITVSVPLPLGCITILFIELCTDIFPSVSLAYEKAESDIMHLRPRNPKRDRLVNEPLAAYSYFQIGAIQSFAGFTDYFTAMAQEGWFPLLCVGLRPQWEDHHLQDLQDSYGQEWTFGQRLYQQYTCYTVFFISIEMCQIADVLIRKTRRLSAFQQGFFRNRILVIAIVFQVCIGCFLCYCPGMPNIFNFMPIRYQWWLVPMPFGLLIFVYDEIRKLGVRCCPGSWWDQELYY
Sequence of Proton Potassium ATPase (H+ K+ ATPase) (A0ACI6PNA7 entry or part of it, further chain): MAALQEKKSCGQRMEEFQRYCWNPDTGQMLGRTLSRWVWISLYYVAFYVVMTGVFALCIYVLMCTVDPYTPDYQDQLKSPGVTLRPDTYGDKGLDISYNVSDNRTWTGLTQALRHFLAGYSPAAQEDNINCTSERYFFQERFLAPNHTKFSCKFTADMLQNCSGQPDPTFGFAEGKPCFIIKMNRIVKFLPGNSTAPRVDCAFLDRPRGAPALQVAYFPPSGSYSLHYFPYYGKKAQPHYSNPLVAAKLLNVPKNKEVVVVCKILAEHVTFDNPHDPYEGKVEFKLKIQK

| Molecule | Contribution towards H+K+ ATPase activity of GRAOX [1] [%] | Contribution towards AOX potency of GRAOX [2] [%] | antioxidant potency fold higher than Cinnamic acid ([2]; ratio versus Cinnamic acid) [fold] |
| --- | --- | --- | --- |
| O=C(O)C=Cc1ccccc1 [Cinnamic acid] | ~90 | ~2 | – |
| Gallic acid/Tannic acid | ~6 | ~92 | ~20 |

Source: US8158608B2, “Bioactive fraction from Zingier officinale and a process for the preparation thereof” (Council of Scientific and Industrial Research, priority 2006, dated 2012)
